Source: patent US20240041042A1, “1-(PYRIDYL)-5-AZINYLPYRAZOLE DERIVATIVES, AND THEIR USE FOR CONTROL OF UNDESIRED PLANT GROWTH” (Bayer Aktiengesellschaft, priority 2020, published 2024)
Where two headings read alike, the source gives them in different places.

Assays:
Type in all cases: in vivo
[1] = system: Abutilon theophrasti (ABUTH); experiment: Pre-emergence herbicidal action against ABUTH; conditions: 100% = plants have died
Outline: (§1)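 Pre-emergence soil-surface spray, WP/EC formulation, 0.5% additive, 600 l/ha water, rates of 320 g/ha or lower. Greenhouse, ~3 wk. Visual score, % of untreated control (100% = plants dead, 0% = like control).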

[2] = system: Alopecurus myosuroides (ALOMY); experiment: Pre-emergence herbicidal action against ALOMY; conditions: scored visually after about 3 weeks, 100% = plants have died
Outline: as §1

[3] = system: Amaranthus retroflexus (AMARE); experiment: Pre-emergence herbicidal action against AMARE; conditions: visual scoring after about 3 weeks vs untreated controls
Outline: as §1

[4] = system: Avena fatua (AVEFA); experiment: Pre-emergence herbicidal action against AVEFA; conditions: visual scoring after about 3 weeks vs untreated controls
Outline: as §1

[5] = system: Digitaria sanguinalis (DIGSA); experiment: Pre-emergence herbicidal action against DIGSA
Outline: as §1

[6] = system: Echinochloa crus-galli (ECHCG); experiment: Pre-emergence herbicidal action against ECHCG
Outline: as §1

[7] = system: Lolium rigidum (LOLRI); experiment: Pre-emergence herbicidal action against LOLRI
Outline: as §1

[8] = system: Matricaria inodora (MATIN); experiment: Pre-emergence herbicidal action against MATIN
Outline: as §1

[9] = system: Pharbitis purpurea (PHBPU); experiment: Pre-emergence herbicidal action against PHBPU; conditions: dosage 320 g/ha
Outline: as §1

[10] = system: Polygonum convolvulus (POLCO); experiment: Pre-emergence herbicidal action against POLCO
Outline: as §1

[11] = system: Setaria viridis (SETVI); experiment: Pre-emergence herbicidal action against SETVI
Outline: as §1

[12] = system: Verconica persica (VERPE); experiment: Pre-emergence herbicidal action against VERPE
Outline: as §1

[13] = system: Viola tricolor (VIOTR); experiment: Pre-emergence herbicidal action against VIOTR
Outline: as §1

[14] = system: Abutilon theophrasti (ABUTH); experiment: Post-emergence herbicidal action against ABUTH; conditions: 320 g/ha, visual rating about 3 weeks after treatment vs untreated controls (100% = plants have died, 0% = like control plants)
Outline: (§2)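 Greenhouse plants sprayed at the one-leaf stage, 2–3 weeks after sowing, with WP or EC formulations plus 0.5% additive at 600 l/ha water. Activity rated visually after about 3 weeks versus untreated controls (100% = dead, 0% = like control), at 320 g/ha or lower.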

[15] = system: Alopecurus myosuroides (ALOMY); experiment: Post-emergence herbicidal action against ALOMY; conditions: visual rating about 3 weeks after treatment vs untreated controls (100% = plants have died, 0% = like control plants)
Outline: as §2

[16] = system: Avena fatua (AVEFA); experiment: Post-emergence herbicidal action against AVEFA; conditions: 320 g/ha, visual rating about 3 weeks after treatment
Outline: as §2

[17] = system: Digitaria sanguinalis (DIGSA); experiment: Post-emergence herbicidal action against DIGSA; conditions: visual rating about 3 weeks after treatment
Outline: as §2

[18] = system: Echinochloa crus-galli (ECHCG); experiment: Post-emergence herbicidal action against ECHCG
Outline: as §2

[19] = system: Lolium rigidum (LOLRI); experiment: Post-emergence herbicidal action against LOLRI; conditions: dosage 320 g/ha
Outline: as §2

[20] = system: Matricaria inodora (MATIN); experiment: Post-emergence herbicidal action against MATIN
Outline: as §2

[21] = system: Setaria viridis (SETVI); experiment: Post-emergence herbicidal action against SETVI
Outline: as §2

[22] = system: Viola tricolor (VIOTR); experiment: Post-emergence herbicidal action against VIOTR; conditions: 320 g/ha
Outline: as §2

[23] = system: Oryza sativa (ORYSA); conditions: crop plant compatibility
Outline: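 Visual rating (% effect vs. untreated plants; 100% = plant death) made about 3 weeks after treatment. Plants had been sprayed at one-leaf stage, 2–3 weeks post-sowing, with aqueous WP/EC preparations containing 0.5% additive, 600 l/ha water volume; a, b, c mark dose levels.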

C[C@@H](Oc1nn(-c2ncccc2F)c(-c2ccc(F)nc2)c1Br)C(=O)O [Example I-18]
Pre-emergence action against ABUTH ([1]; 80 g/ha, scored visually after about 3 weeks vs untreated controls, 0% = like control plants): 80%
Pre-emergence action against ABUTH ([1]; Dosage column 320 g/ha (title prints 3200 g/ha), scored visually after about 3 weeks): 90%
Pre-emergence action against ALOMY ([2]; 80 g/ha): 100%
Pre-emergence action against ALOMY ([2]; 320 g/ha): 100%
Pre-emergence action against AMARE in % ([3]; 80 g/ha): 100%
Pre-emergence action against AMARE in % ([3]; 320 g/ha): 100%
Pre-emergence action against AVEFA in % ([4]; 80 g/ha): 90%
Pre-emergence action against AVEFA in % ([4]; 320 g/ha): 100%
Pre-emergence action against DIGSA in % ([5]; 80 g/ha, visual scoring after about 3 weeks vs untreated controls): 100%
Pre-emergence action against DIGSA in % ([5]; dosage 320 g/ha): 100%
Pre-emergence action against ECHCG in % ([6]; dosage 80 g/ha): 90%
Pre-emergence action against ECHCG in % ([6]; dosage 320 g/ha): 90%
Pre-emergence action against LOLRI in % ([7]; dosage 80 g/ha): 90%
Pre-emergence action against LOLRI in % ([7]; dosage 320 g/ha): 100%
Pre-emergence action against MATIN in % ([8]; dosage 80 g/ha): 100%
Pre-emergence action against MATIN in % ([8]; dosage 320 g/ha): 100%
Pre-emergence action against PHBPU in % [9]: 90%
Pre-emergence action against POLCO in % ([10]; dosage 80 g/ha): 100%
Pre-emergence action against POLCO in % ([10]; dosage 320 g/ha): 100%
Pre-emergence action against SETVI in % ([11]; dosage 80 g/ha): 100%
Pre-emergence action against SETVI in % ([11]; dosage 320 g/ha): 100%
Pre-emergence action against VERPE in % ([12]; dosage 80 g/ha): 90%
Pre-emergence action against VERPE in % ([12]; dosage 320 g/ha): 100%
Pre-emergence action against VIOTR in % ([13]; 320 g/ha, Viola tricolor): 100%
Pre-emergence action against VIOTR in % ([13]; dosage 80 g/ha): 100%
Post-emergence action against ABUTH in % [14]: 80%
Post-emergence action against ALOMY in % ([15]; 80 g/ha): 90%
Post-emergence action against ALOMY in % ([15]; 320 g/ha): 100%
Post-emergence action against AVEFA in % [16]: 80%
Post-emergence action against DIGSA in % ([17]; 80 g/ha): 90%
Post-emergence action against DIGSA in % ([17]; 320 g/ha): 90%
Post-emergence action against ECHCG in % ([18]; dosage 80 g/ha): 80%
Post-emergence action against ECHCG in % ([18]; dosage 320 g/ha): 80%
Post-emergence action against LOLRI in % [19]: 80%
Post-emergence action against MATIN in % ([20]; dosage 80 g/ha): 80%
Post-emergence action against MATIN in % ([20]; dosage 320 g/ha): 80%
Post-emergence action against SETVI in % ([21]; dosage 80 g/ha): 80%
Post-emergence action against SETVI in % ([21]; dosage 320 g/ha): 80%
Post-emergence action against VIOTR in % [22]: 80%
Post-emergence action against ORYSA in % ([23]; 20 g/ha, effect vs untreated controls): 0%
Post-emergence action against ORYSA in % ([23]; 80 g/ha, effect in comparison to untreated controls): 10%
Post-emergence action against ORYSA in % ([23]; 320 g/ha, effect in comparison to untreated controls): 20%
